Measurements taken from patent publication US11000586B2, “Adjuvant composition, vaccine composition containing the same, and method for producing both of them” (TERUMO KABUSHIKI KAISHA, priority 2013, dated 2021).

Tests used:
[1] = system: CTL (IFNγ-secreting cells/total CD8 positive cells); experiment: Evaluation of CTL induction rate, ICS method, after immunization of mice; format: in vivo, C57BL/6N mice; conditions: antigen peptide (80 μg); MPL content 0.227 or equivalent; DLPC, deoxycholic acid (160 nmol); subcutaneous once; FIGS. 3 and 4
Procedure: Administration (100 μL/head) was performed by subcutaneous injection at one position on the back under anesthesia. […] For evaluation of cell-mediated immunity, administration was performed once and the assay was performed seven days after administration. For evaluation of humoral immunity, administration was performed twice. The second administration was performed 14 days after the first administration, and assay was performed seven days after the second administration.
The mice were sacrificed on the seventh day after the last administration and had its spleen harvested. The spleen was given RPMI medium (3.0 mL) containing 10% serum and then treated by the BD Falcon cell strainer. Thus there was obtained a suspension of cells. […] The cells were dispersed into RPMI medium containing 10% serum. The number of cells was counted. Thus there was obtained a dispersion of spleen cells.
For restimulation of the antigen, 10% serum-containing RPMI medium (100 μL) containing OVA peptide (40 μg/mL) was added, followed by incubation for three hours. Then, BD GolgiPlug was added such that its concentration was 0.2 μL/100 μL. Cell culture was performed overnight. In the case where the restimulation was not given, a 10% serum-containing RPMI medium not containing OVA peptide was used.
After washing, the cells were stained with Anti-CD8aPE (at 4° C. for 30 minutes), followed by washing again. Then the cells were permeabilized with Cytofix/Cytoperm. After washing, the cells were stained with Anti-IFNγFITC (at 4° C. for 30 minutes). […] CTL induction rate was calculated in terms of the ratio between the IFNγ secreting cells and the total CD8 positive cells.
It is known that MPL activates innate immune system and functions as an adjuvant even when used alone. It is also known that MPL induces cell-mediated immunity. Thus, a comparison was made as to the induction of cell-mediated immunity between MPL used alone and MPL used in combination with a pH-sensitive carrier in the form of the adjuvant composition. Each of the MPL and the adjuvant composition is administered together with an antigen. […] The above-mentioned solution or dispersion was subcutaneously administered once to the back of C57BL/6N mice, and the CTL induction rate was obtained according to the ICS method. The CTL induction rate is expressed in terms of the ratio of the IFNγ-secreting cells to the total CD8 positive cells in a specific area which is hardly affected by dead cells (IFNγ-secreting cells/total CD8 positive cells).

[2] = system: IFNγ-secreting cells in the spleen; experiment: ELIspot method (IFNγ spots) after immunization of mice; format: in vivo, C57BL/6N mice; conditions: antigen OVA peptide; DLPC, deoxycholic acid (160 nmol), MPL content 0.227; 2×10^6 cells/well; FIG. 2
Procedure: Administration (100 μL/head) was performed by subcutaneous injection at one position on the back under anesthesia. The dose of the amphipathic substance was 100 nmol/head; the dose of the pH-sensitive compound was 10 to 640 nmol/head; MPL content was 0.0227 to 22.7 nmol/head; and the amount of the antigen was 3.2 to 400 μg/head. For evaluation of cell-mediated immunity, administration was performed once and the assay was performed seven days after administration. For evaluation of humoral immunity, administration was performed twice. The second administration was performed 14 days after the first administration, and assay was performed seven days after the second administration.
The mice were sacrificed on the seventh day after the last administration and had its spleen harvested. […] The number of cells was counted. […]
The ELIspot method was practiced by using the Mouse IFNγ ELISPOT Set. One day before cell inoculation, the 96-well ELIspot plate was allowed to adsorb the detection antibody attached to the kit, so that the plate was made ready for use. […]
Samples used for comparison include a solution of the peptide alone, a dispersion of the pH-sensitive carrier (DLPC-deoxycholic acid) and the peptide, and a solution of incomplete Freund's adjuvant (IFA) and peptide. […] The number of IFNγ-secreting cells in the spleen was counted, and the CTL induction was evaluated.

CD80 = experiment: Evaluation of stimulus to activate innate immune system: expression of CD80 in cultured mice spleen cells (flow cytometry); conditions: solution (5 μL) of sample added alone: peptide, OVA 800 μg/mL, DLPC 1000 nmol/mL, deoxycholic acid 1600 nmol/mL; FIG. 8(B)
Procedure: The evaluation of stimulus to activate innate immune system was performed as follows.
A spleen was harvested from C57BL/6N mice. The harvested spleen was injected with 500 μL of collagenase solution, 2 mg/mL (prepared with RPMI medium) followed by incubation at 37° C. for 30 minutes. The spleen was made into cell suspension by treatment with BD Falcon cell strainer. The cells underwent hemolysis with RBC lysis buffer, followed by washing with RPMI medium. The cells were dispersed into RPMI medium, and the number of cells was counted. The cells were used for the subsequent procedure.
The cells were inoculated into a 96-well dish such that 1.0×10^6 cells/100 μL. The cell dispersion was given 100 μL of RPMI medium containing a dispersion of different kind, followed by incubation overnight. These procedures were performed by using serum-free RPMI medium.
The cells were recovered and washed with BD stain buffer. Then, the cells underwent incubation together with Anti-CD11cFITC, 0.25 μg/100 μL (4° C. for 30 minutes), so that the cells were stained. After washing, the cells underwent again incubation with Anti-CD80PE, Anti-CD86PE, or Anti-CD40PE, 0.25 μg/100 μL (4° C. for 30 minutes), so that the cells were stained. After washing at least more than three times, the cells were evaluated by using the flow cytometer (Cytomics FC500, Software: CXP software ver. 2).

Sequence: SIINFEKL [peptide alone]
- CTL induction rate [1]: 0.14%
- number of IFNγ spots compared with untreated sample [2]: equivalent number of spots as the untreated sample
- fluorescence intensity of CD80PE compared with PBS (CD80): remained unchanged from that in the case where PBS was added
